Measurements as given in patent publication US9512140B2, “(Thieno[2,3-b][1,5]benzoxazepin-4-yl)piperazin-1-yl compounds as dual activity H1 inverse agonists/5-HT2A antagonists” (priority 2011, dated 2016).

System: Rats
Experiment: Sleep and behavioral monitoring in rats (EEG, EMG, motion)
Type: in vivo
Conditions: for Rebound Insomnia, Adj. Mean: NREM+REM sleep in 7th-9th hours post-treatment; for Rebound Insomnia, Adj. Mean / REM inhibition, Adj. Mean / Cumulative Total sleep, Adj. Mean / Locomotor Activity Intensity, Adj. Mean: difference from vehicle; for REM inhibition, Adj. Mean: cumulative REM sleep, first 12 hr. post-treatment; for Average Sleep Bout, Adj. Mean / Longest Sleep Bout, Adj. Mean / Cumulative Total sleep, Adj. Mean / Cumulative NREM sleep, Adj. Mean / Locomotor Activity Intensity, Adj. Mean: first 6 hr. post-treatment; for Cumulative Total sleep, Adj. Mean: NREM+REM; for Cumulative NREM sleep, Adj. Mean: adjusted difference from vehicle controls
Experimental: The compound of the present invention is tested in rats for its ability to increase the amount of sleep or decrease sleep interruption or both without undesired effects such as inhibition of REM sleep, waking motor impairment, and/or rebound insomnia. Test animals are continuously monitored by electro-encephalograms (EEG), electromyograms (EMG), and motion to measure cumulative nonREM sleep, cumulative total sleep, average sleep bout duration, longest sleep bout duration, rebound insomnia. REM sleep inhibition and locomotor activity intensity during wakefulness. Methods for such studies are known in the art (see for example methods described in Edgar D M, Seidel W F. Modafinil induces wakefulness without intensifying motor activity or subsequent rebound hypersomnolence in the rat. J Pharmacology & Experimental Therapeutics 1997; 283: 757-769; van Gelder R N, Edgar D M, Dement W C. Real-time automated sleep scoring: validation of a microcomputer-based system for mice. Sleep 1991, 14: 48-55; and Gross B A, Walsh C M, Turakhia A A, Booth V, Mashour G A, Poe G R. Open-source logic-based automated sleep scoring software using electrophysiological recordings in rats. J Neurosci Methods. 2009; 184(1):10-8.) Studies are conducted as follows:
Adult, male Wistar rats (approximately 270-300 g at time of surgery) are surgically fitted for chronic recording of EEG, EMG, and motion as follows: Rats are surgically prepared with a cranial implant consisting of four stainless steel screws for EEG recording (two frontal [3.9 mm anterior from bregma, and ±2.0 mm mediolaterally] and two occipital [6.4 mm posterior from bregma, ±5.5 mm mediolaterally]), and with two Teflon-coated stainless steel wires for EMG recording (positioned under the nuchal trapezoid muscles). All leads are soldered to a miniature connector (Microtech, Boothwyn, Pa.) prior to surgery. The implant assembly is affixed to the skull by the combination of the stainless steel EEG recording screws, cyanoacrylate applied between the implant connector and skull, and dental acrylic. Locomotor activity is monitored via a miniature transmitter (Minimitter PDT4000G, Philips Respironics, Bend, Oreg.) surgically placed into the abdomen. At least 3 weeks are allowed for recovery.
Each rat is housed individually within a microisolator cage modified with an inserted polycarbonate filter-top riser to allow more vertical headroom. A flexible cable that minimally restricts movement is connected at one end to a commutator afixed to the cage top and at the other end to the animal's cranial implant. Each cage is located within separate, ventilated compartments of a stainless steel sleep-wake recording chamber. Food and water are available ad libitum and the ambient temperature is maintained at about 23±1° C. A 24-hr light-dark cycle (LD 12:12) using fluorescent light is maintained throughout the study. Relative humidity averages approximately 50%. Animals are undisturbed for at least 30 hrs before and after each treatment.
The vehicle (placebo, methylcellulose 15 centipoise 0.25% in water) or one of the test compound dose levels is administered orally at 1 mL/kg pseudo-randomly such that no rat receives the same treatment twice, and no rat receives more than two of the 8 treatments in any one study. Each rat is removed from its cage for about a minute to be weighed and treated. At least 6 days “washout” period precede and follow each treatment. […]

## Cc1ccc2c(c1)Oc1sc(C)cc1C(N1CCN(CC(C)(C)C(=O)O)CC1)=N2 [Example 3, 3-[4-(2,8-Dimethylthieno[2,3-b][1,5]benzoxazepin-4-yl)piperazin-1-yl]-2,2-dimethyl-propanoic acid; 4-methylbenzenesulfonic acid]
0.025 mg/kg PO
  Rebound Insomnia, Adj. Mean: 0.3 min
  REM inhibition, Adj. Mean: -2.7 min
  Average Sleep Bout, Adj. Mean: 1.0 n-fold increase over vehicle controls
  Longest Sleep Bout, Adj. Mean: 1.0 n-fold increase over vehicle controls
  Cumulative Total sleep, Adj. Mean: -2.3 min
  Cumulative NREM sleep, Adj. Mean: 1.3 min
  Locomotor Activity Intensity, Adj. Mean: −0.1 LMA counts per minute of EEG-defined wakefulness
0.25 mg/kg PO
  Rebound Insomnia, Adj. Mean: 1.0 min
  REM inhibition, Adj. Mean: -1.5 min
  Average Sleep Bout, Adj. Mean: 1.6 n-fold increase over vehicle controls
  Longest Sleep Bout, Adj. Mean: 1.6 n-fold increase over vehicle controls
  Cumulative Total sleep, Adj. Mean: 33.5 min
  Cumulative NREM sleep, Adj. Mean: 34.3 min
  Locomotor Activity Intensity, Adj. Mean: −1.6 LMA counts per minute of EEG-defined wakefulness
0.5 mg/kg PO
  Rebound Insomnia, Adj. Mean: -0.3 min
  REM inhibition, Adj. Mean: 0.7 min
  Average Sleep Bout, Adj. Mean: 1.6 n-fold increase over vehicle controls
  Longest Sleep Bout, Adj. Mean: 2.1 n-fold increase over vehicle controls
  Cumulative Total sleep, Adj. Mean: 21.7 min
  Cumulative NREM sleep, Adj. Mean: 21.7 min
  Locomotor Activity Intensity, Adj. Mean: 0.0 LMA counts per minute of EEG-defined wakefulness
1 mg/kg PO
  Rebound Insomnia, Adj. Mean: -3.8 min
  REM inhibition, Adj. Mean: 0.1 min
  Average Sleep Bout, Adj. Mean: 1.7 n-fold increase over vehicle controls
  Longest Sleep Bout, Adj. Mean: 2.2 n-fold increase over vehicle controls
  Cumulative Total sleep, Adj. Mean: 30.8 min
  Cumulative NREM sleep, Adj. Mean: 31.9 min
  Locomotor Activity Intensity, Adj. Mean: −2.5 LMA counts per minute of EEG-defined wakefulness
3 mg/kg PO
  Rebound Insomnia, Adj. Mean: -1.3 min
  REM inhibition, Adj. Mean: -4.2 min
  Average Sleep Bout, Adj. Mean: 1.5 n-fold increase over vehicle controls
  Longest Sleep Bout, Adj. Mean: 1.9 n-fold increase over vehicle controls
  Cumulative Total sleep, Adj. Mean: 26.9 min
  Cumulative NREM sleep, Adj. Mean: 29.2 min
  Locomotor Activity Intensity, Adj. Mean: −2.6 LMA counts per minute of EEG-defined wakefulness
10 mg/kg PO
  Rebound Insomnia, Adj. Mean: 0.4 min
  REM inhibition, Adj. Mean: -12.1 min
  Average Sleep Bout, Adj. Mean: 1.7 n-fold increase over vehicle controls
  Longest Sleep Bout, Adj. Mean: 1.9 n-fold increase over vehicle controls
  Cumulative Total sleep, Adj. Mean: 32.8 min
  Cumulative NREM sleep, Adj. Mean: 36.7 min
  Locomotor Activity Intensity, Adj. Mean: −3.7 LMA counts per minute of EEG-defined wakefulness
rat
  change in awake time following treatment, dose response curve (FIG. 2): does not result in rebound insomnia
  change in cumulative REM sleep time, dose response curve (FIG. 1): does not inhibit REM sleep
  change in distances moved during periods of wakefulness, dose response curve (FIG. 3): does not inhibit or stimulate normal activity
